Assay results from patent publication US20220016115A1, “USP19 INHIBITORS FOR USE IN THERAPY” (ALMAC DISCOVERY LIMITED, priority 2018, published 2022).
“Also recorded” adds a separate entry of the source.

Tests used:
[1] = molecular target: T1, USP19 (Homo sapiens, UniProt O94966); test: Cell target engagement, neuroblastoma cell line; format: cell-based
T1 sequence (O94966 1-1318): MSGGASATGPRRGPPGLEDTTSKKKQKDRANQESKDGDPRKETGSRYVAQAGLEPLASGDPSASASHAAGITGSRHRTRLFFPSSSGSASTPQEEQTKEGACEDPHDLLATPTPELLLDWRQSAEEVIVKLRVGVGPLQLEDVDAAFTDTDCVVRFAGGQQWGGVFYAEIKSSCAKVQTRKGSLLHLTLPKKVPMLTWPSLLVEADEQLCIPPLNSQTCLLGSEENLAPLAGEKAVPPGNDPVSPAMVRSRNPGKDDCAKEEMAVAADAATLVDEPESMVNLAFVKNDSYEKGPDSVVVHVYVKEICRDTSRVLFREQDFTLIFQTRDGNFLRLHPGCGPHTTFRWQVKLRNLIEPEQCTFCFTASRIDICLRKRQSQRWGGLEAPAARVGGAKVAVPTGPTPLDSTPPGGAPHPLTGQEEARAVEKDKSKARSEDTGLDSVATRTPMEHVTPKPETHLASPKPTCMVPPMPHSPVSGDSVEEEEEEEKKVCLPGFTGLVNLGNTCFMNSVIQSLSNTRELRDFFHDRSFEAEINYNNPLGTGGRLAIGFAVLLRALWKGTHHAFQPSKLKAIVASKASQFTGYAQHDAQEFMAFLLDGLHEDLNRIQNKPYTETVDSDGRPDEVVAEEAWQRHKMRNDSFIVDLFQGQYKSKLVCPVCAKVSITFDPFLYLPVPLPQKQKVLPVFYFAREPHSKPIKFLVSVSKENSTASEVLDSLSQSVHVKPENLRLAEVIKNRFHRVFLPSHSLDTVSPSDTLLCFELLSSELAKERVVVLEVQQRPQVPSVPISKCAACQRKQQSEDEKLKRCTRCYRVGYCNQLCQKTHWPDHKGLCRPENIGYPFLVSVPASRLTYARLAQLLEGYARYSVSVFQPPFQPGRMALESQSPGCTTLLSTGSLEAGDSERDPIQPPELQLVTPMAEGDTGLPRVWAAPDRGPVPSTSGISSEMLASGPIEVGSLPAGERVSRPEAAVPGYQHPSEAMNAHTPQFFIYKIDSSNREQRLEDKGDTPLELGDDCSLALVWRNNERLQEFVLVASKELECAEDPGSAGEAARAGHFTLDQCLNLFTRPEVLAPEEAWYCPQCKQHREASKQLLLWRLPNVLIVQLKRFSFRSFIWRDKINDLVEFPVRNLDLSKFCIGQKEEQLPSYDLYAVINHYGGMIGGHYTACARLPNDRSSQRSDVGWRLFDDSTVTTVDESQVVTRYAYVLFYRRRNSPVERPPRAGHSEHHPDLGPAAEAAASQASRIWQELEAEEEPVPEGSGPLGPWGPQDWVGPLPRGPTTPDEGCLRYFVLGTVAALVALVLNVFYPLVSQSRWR
Experimental: Cells from a breast cancer cell line, a neuroblastoma cell line and a mouse skeletal muscle cell line were treated with a USP19 inhibitor compound (ADC-141, corresponding to Example 212 provided herein) for 2 hrs, lysed (lysis buffer: 50 mM Tris pH 7.4; 150 mM NaCl; 5 mM MgCl2; 0.5 mM EDTA; 0.5% NP40; 10% Glycerol; 2 mM DTT) and Ubiquitin-propargylamine (Ub-PA; UbiQ) or Ubiquitin-vinyl methyl ester (Ub-VME; Almac Sciences Scotland Limited) was then added. Samples were analysed by western blotting probing for USP19 (EC50 determined by densitometry).

[2] = test system: male C57bl/6 mice; test: Sciatic nerve denervation muscle wasting model; format: in vivo; conditions: 75 mg/kg IP twice daily, vs vehicle
Experimental: To induce muscle wasting, a 1 cm segment of the sciatic nerve in the thigh was removed from mice (male C57bl/6 mice at 8-10 weeks of age; n=10 per group) under isoflurane anaesthesia and analgesia with carprofen. A sham operation was carried out in the opposite leg as a control.
Mice were randomised into Vehicle or Test groups, with all animals weighed to ensure a similar mean weight in each group. A USP19 inhibitory compound (ADC-141, which is 1-(((S)-7-((R)-3-Cyclohexyl-2-methylpropanoyl)-10-hydroxy-7-azaspiro[4.5]decan-10-yl)methyl)-4-phenyl-5-(piperazine-1-carbonyl)pyridin-2(1H)-one, corresponding to exemplary compound 212 provided herein) at 75 mg/kg or Vehicle was administered IP twice daily starting from the evening post-operation.
Mice were sacrificed 14 days later. Fat pads, liver, gastrocnemius and tibialis anterior muscles were harvested. Tissue mass were measured in both groups.

For C[C@H](CC1CCCCC1)C(=O)N1CC[C@@](O)(Cn2cc(C(=O)N3CCNCC3)c(-c3ccccc3)cc2=O)C2(CCCC2)C1 [ADC-141, 1-(((S)-7-((R)-3-Cyclohexyl-2-methylpropanoyl)-10-hydroxy-7-azaspiro[4.5]decan-10-yl)methyl)-4-phenyl-5-(piperazine-1-carbonyl)pyridin-2(1H)-one], the cell permeability [1] was “good cell permeability”, the “EC50 (USP19 target engagement, densitometry)” value ([1]; 2 hrs treatment, Ub-PA or Ub-VME probe, western blot) was “low nanomolar” and the liver mass ([2]; 2 weeks) was “increase in liver mass”. The “mass of the epididymal fat pad” value ([2]; 2 weeks) was “significant reduction in fat mass; also recorded: significantly smaller fat pads”, the “loss of muscle mass in the tibialis anterior muscle” value ([2]; denervated limb, 14 days) was “significantly lower loss of muscle mass” and the “muscle wasting in the gastrocnemius muscle” value ([2]; denervated limb, 14 days) was “reduced in the gastrocnemius muscle (FIG. 2), though the trend did not reach significance”.
